From the kinase profiling compilation of Christmann-Franck et al. (2016)
Values joined by “and” are separate entries in the source; they are usually repeats but may differ in a detail not shown here. Equal entries are not always repeated.

Key:
Assay in all cases: radiometric filter-binding kinase assay, Kinase HotSpot
Details in all cases: compound 0.5 µM; ATP 10 µM
MAPKAPK5 (human) = MAPKAPK5 (human) (UniProt Q8IW41)
LCK (human) = LCK (human) (UniProt P06239)
EGFR (human) = EGFR (human) (UniProt P00533)
[1] = target: TYK2 JH1 catalytic (human) (UniProt P29597)
MARK1 (human) = MARK1 (human) (UniProt Q9P0L2)
PRKG1 (human) = PRKG1 (human) (UniProt Q13976)
KDR (human) = KDR (human) (UniProt P35968)
MAPK14 (human) = MAPK14 (human) (UniProt Q16539)
DYRK1A (human) = DYRK1A (human) (UniProt Q13627)
CDK3 CCNE1 (human) = CDK3 CCNE1 (human) (UniProt Q00526+P24864)
PTK2 (human) = PTK2 (human) (UniProt Q05397)
RPS6KB1 (human) = RPS6KB1 (human) (UniProt P23443)
PHKG2 (human) = PHKG2 (human) (UniProt P15735)
STK16 (human) = STK16 (human) (UniProt O75716)
CSNK1A1 (human) = CSNK1A1 (human) (UniProt P48729)
PRKCA (human) = PRKCA (human) (UniProt P17252)
MKNK2 (human) = MKNK2 (human) (UniProt Q9HBH9)
DYRK3 (human) = DYRK3 (human) (UniProt O43781)
TAOK2 (human) = TAOK2 (human) (UniProt Q9UL54)
RPS6KB2 (human) = RPS6KB2 (human) (UniProt Q9UBS0)
YES1 (human) = YES1 (human) (UniProt P07947)
PRKD3 (human) = PRKD3 (human) (UniProt O94806)
[2] = test system: SGK1 (human), O00141 [S422D]
PAK6 (human) = PAK6 (human) (UniProt Q9NQU5)
CHEK1 (human) = CHEK1 (human) (UniProt O14757)
EPHB2 (human) = EPHB2 (human) (UniProt P29323)
CAMK2B (human) = CAMK2B (human) (UniProt Q13554)
RET (human) = RET (human) (UniProt P07949)
KIT (human) = KIT (human) (UniProt P10721)
CLK4 (human) = CLK4 (human) (UniProt Q9HAZ1)
[3] = target: JAK1 JH1 catalytic (human) (UniProt P23458)
TGFBR2 (human) = TGFBR2 (human) (UniProt P37173)
CSNK2A1 (human) = CSNK2A1 (human) (UniProt P68400)
PDPK1 (human) = PDPK1 (human) (UniProt O15530)
BRAF (human) = BRAF (human) (UniProt P15056)

Chain of LCK (human) (P06239 whole entry, looked up): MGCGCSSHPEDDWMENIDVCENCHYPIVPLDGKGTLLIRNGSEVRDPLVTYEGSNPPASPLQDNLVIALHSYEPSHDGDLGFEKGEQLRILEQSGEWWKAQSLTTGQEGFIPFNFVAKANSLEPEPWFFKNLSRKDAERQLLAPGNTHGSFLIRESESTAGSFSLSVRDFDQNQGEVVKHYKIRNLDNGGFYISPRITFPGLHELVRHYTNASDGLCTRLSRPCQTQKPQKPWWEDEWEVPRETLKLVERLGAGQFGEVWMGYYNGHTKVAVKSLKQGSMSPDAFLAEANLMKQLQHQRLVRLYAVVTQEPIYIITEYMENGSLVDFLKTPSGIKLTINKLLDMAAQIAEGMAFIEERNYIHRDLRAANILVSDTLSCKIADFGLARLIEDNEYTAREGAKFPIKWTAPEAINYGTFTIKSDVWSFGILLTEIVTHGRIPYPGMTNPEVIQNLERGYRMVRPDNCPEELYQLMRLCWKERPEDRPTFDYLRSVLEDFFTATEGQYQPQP
Chain of KIT (human) (P10721 whole entry, looked up): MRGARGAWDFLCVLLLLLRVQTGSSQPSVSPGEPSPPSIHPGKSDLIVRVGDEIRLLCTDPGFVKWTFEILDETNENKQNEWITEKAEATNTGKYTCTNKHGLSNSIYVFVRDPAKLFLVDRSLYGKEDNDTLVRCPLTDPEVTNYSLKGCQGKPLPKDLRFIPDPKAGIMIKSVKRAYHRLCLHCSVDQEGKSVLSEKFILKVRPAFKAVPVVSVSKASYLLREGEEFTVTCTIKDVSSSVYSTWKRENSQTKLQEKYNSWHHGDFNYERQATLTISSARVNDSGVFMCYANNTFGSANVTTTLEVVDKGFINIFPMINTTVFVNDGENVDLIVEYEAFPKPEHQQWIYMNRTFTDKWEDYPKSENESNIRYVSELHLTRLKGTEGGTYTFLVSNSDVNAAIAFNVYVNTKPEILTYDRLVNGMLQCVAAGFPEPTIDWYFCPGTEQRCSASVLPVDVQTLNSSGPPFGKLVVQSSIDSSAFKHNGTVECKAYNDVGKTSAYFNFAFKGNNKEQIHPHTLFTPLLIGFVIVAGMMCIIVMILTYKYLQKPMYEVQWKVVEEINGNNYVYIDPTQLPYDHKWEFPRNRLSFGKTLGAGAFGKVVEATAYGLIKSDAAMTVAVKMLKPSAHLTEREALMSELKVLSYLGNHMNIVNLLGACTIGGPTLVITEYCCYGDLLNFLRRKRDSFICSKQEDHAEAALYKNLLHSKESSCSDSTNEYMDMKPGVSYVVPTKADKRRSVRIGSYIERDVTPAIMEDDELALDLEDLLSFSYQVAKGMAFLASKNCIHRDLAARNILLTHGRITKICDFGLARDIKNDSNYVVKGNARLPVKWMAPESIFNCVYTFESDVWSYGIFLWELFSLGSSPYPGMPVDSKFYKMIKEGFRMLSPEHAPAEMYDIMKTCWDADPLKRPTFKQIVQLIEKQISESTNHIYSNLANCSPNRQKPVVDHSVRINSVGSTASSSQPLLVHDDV
Chain of CSNK2A1 (human) (P68400 whole entry, looked up): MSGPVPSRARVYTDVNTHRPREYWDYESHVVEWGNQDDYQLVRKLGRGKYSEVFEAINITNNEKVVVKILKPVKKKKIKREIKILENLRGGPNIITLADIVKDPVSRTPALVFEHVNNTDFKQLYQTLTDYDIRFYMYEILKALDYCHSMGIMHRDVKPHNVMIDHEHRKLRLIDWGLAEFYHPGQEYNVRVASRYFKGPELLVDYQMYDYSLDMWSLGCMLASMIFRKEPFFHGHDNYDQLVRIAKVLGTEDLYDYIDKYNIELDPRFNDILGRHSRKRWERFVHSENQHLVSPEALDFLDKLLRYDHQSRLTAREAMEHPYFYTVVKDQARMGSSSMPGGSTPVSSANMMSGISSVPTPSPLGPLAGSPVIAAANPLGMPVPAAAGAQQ
Chain of PRKD3 (human) (O94806 whole entry, looked up): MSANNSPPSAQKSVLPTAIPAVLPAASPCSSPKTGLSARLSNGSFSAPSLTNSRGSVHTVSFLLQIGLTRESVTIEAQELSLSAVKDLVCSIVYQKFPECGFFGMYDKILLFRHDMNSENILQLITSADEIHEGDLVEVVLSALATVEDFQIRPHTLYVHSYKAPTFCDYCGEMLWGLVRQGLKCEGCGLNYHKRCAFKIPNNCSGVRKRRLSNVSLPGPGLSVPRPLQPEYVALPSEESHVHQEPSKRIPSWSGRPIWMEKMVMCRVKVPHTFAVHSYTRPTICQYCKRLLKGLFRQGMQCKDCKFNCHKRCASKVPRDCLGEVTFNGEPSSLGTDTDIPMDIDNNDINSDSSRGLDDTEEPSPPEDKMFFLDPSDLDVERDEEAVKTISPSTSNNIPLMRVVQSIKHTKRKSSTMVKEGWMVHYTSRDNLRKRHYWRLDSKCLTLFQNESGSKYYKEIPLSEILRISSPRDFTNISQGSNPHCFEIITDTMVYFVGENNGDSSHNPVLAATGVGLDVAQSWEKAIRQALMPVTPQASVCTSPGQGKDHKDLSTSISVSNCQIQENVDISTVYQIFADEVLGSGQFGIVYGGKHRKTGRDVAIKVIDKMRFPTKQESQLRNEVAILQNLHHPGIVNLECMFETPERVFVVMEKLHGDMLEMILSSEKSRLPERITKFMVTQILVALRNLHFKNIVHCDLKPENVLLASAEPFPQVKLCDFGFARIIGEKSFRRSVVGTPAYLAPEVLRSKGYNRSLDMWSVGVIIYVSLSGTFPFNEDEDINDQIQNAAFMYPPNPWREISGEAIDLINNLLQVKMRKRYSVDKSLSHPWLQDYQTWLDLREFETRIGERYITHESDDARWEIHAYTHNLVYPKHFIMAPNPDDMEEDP
Chain of EPHB2 (human) (P29323 whole entry, looked up): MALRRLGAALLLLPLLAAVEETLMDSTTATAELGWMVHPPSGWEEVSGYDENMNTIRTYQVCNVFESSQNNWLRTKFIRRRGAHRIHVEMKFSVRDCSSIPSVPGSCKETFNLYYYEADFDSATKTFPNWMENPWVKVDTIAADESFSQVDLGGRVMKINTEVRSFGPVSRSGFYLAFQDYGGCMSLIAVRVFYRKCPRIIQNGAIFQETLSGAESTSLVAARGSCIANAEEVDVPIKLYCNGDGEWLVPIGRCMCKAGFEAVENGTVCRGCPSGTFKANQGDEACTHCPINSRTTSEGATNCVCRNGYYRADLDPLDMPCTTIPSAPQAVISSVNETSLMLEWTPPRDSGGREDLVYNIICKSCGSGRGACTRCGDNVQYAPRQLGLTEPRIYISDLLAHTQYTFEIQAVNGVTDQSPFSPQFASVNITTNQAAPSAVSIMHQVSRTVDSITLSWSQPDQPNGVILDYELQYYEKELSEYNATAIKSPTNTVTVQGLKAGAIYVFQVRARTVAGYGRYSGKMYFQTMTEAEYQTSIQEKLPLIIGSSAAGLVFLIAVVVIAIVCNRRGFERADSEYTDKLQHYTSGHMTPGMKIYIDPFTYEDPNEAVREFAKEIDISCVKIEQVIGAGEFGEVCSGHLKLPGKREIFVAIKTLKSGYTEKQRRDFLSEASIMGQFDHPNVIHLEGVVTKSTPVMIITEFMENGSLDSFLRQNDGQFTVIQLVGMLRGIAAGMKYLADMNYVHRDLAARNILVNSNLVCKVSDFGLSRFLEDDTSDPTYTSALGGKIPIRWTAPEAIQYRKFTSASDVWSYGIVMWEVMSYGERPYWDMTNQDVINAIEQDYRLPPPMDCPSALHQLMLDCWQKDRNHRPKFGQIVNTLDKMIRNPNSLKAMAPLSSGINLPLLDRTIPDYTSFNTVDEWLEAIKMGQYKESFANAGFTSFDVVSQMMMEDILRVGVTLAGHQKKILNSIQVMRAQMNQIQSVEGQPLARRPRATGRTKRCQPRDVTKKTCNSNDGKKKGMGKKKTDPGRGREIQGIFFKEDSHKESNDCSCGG
Chain of CLK4 (human) (Q9HAZ1 whole entry, looked up): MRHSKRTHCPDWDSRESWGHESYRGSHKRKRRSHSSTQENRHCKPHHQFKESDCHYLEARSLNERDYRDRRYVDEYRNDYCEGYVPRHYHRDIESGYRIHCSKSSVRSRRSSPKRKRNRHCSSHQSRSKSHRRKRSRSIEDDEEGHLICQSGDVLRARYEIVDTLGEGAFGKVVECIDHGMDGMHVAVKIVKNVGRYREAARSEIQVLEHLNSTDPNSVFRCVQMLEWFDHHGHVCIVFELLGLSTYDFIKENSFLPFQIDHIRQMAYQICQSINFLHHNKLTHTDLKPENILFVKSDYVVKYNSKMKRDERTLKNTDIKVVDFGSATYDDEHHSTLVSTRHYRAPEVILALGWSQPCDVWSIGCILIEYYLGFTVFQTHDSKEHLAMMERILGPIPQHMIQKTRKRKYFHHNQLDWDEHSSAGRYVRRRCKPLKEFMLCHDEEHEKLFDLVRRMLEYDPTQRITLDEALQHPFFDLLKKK
Chain of PRKG1 (human) (Q13976 whole entry, looked up): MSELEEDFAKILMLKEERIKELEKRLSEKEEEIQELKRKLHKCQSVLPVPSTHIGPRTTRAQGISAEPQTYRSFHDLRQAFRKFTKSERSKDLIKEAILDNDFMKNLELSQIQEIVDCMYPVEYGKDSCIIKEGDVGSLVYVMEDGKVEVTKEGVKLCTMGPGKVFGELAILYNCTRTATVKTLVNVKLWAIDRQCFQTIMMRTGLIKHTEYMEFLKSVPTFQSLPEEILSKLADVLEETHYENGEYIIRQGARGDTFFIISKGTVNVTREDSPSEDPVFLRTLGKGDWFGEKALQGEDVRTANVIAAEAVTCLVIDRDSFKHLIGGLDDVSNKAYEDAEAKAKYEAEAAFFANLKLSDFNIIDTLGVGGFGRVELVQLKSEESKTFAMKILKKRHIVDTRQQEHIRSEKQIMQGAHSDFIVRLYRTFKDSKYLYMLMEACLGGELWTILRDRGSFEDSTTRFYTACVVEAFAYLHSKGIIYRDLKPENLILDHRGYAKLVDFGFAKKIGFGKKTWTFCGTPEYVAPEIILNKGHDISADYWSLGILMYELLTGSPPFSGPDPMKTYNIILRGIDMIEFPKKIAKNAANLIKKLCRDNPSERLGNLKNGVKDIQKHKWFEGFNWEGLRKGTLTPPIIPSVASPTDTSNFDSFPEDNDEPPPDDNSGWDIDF

Row | Structure (SMILES) | residual activity (MAPKAPK5 (human)) | residual activity (LCK (human)) | residual activity [1] | residual activity (MARK1 (human)) | residual activity (PRKG1 (human)) | residual activity (KDR (human)) | residual activity (MAPK14 (human)) | residual activity (DYRK1A (human)) | residual activity (CDK3 CCNE1 (human)) | residual activity (RPS6KB1 (human)) | residual activity (PHKG2 (human)) | residual activity (STK16 (human)) | residual activity (CSNK1A1 (human)) | residual activity (PRKCA (human)) | residual activity (MKNK2 (human)) | residual activity (DYRK3 (human)) | residual activity (TAOK2 (human)) | residual activity (RPS6KB2 (human)) | residual activity (YES1 (human)) | residual activity (PRKD3 (human)) | also measured
1 | O=C(c1ccccc1)c1ccc(N2CCOCC2)cc1O | 99.8% | 101% | 110% | 97.6% | 86.8% and 96.4% | 96.8% | 96.3% | 101% | 105% | 95.3% | 101% | 104% | 110% | 84.2% | 90.6% | 98.9% | 107% | 100% | 103% | 96.1% | residual activity (EGFR (human)): 94.9%; residual activity (PTK2 (human)): 109%; residual activity [2]: 101%; residual activity (PAK6 (human)): 93.6%; residual activity (CHEK1 (human)): 108%; residual activity (EPHB2 (human)): 94.9%; residual activity (CAMK2B (human)): 105%; residual activity (RET (human)): 97.8%; residual activity (KIT (human)): 96.2%; residual activity (CLK4 (human)): 101%; residual activity [3]: 108%; residual activity (TGFBR2 (human)): 109%; residual activity (CSNK2A1 (human)): 91.1%; residual activity (PDPK1 (human)): 101%
2 | N/C(=N\N=C/c1ccc(-c2cccc([N+](=O)[O-])c2)o1)N[N+](=O)[O-] | 94.6% | 98.6% | 110% | 90.7% | 87.4% and 95.8% | 96.7% | 90.2% | 95.8% | 85% | 100% | 100% | 105% | 113% | 115% | 89.3% | 102% | 95.3% | 102% | 95.6% | 93.9% | residual activity (EGFR (human)): 100%; residual activity [2]: 92.4%; residual activity (PAK6 (human)): 99%; residual activity (EPHB2 (human)): 84.6%; residual activity (CAMK2B (human)): 100%; residual activity (RET (human)): 99.9%; residual activity (KIT (human)): 96.4%; residual activity (CLK4 (human)): 103%; residual activity [3]: 102%; residual activity (TGFBR2 (human)): 123%; residual activity (CSNK2A1 (human)): 91%; residual activity (PDPK1 (human)): 94.6%
3 | CCCCc1c(-c2ccc(O)cc2)[nH]c2nccnc12 | 93.1% | 86.8% | 43.4% | 91.9% | 88.8% and 94.5% | 89.8% | 102% | 92.9% | 76.8% | 105% | 100% | 55.4% | 92.9% | 83.7% | 107% | 90.9% | 62.7% | 102% | 46.5% | 67.4% | residual activity (PTK2 (human)): 83.1%; residual activity [2]: 88.1%; residual activity (PAK6 (human)): 94.3%; residual activity (CHEK1 (human)): 92.9%; residual activity (EPHB2 (human)): 92.3%; residual activity (CAMK2B (human)): 97%; residual activity (RET (human)): 52.6%; residual activity (KIT (human)): 80.8%; residual activity (BRAF (human)): 99.3%; residual activity (CLK4 (human)): 64.3%; residual activity [3]: 53.8%; residual activity (TGFBR2 (human)): 55%; residual activity (CSNK2A1 (human)): 95.9%; residual activity (PDPK1 (human)): 95.9%
4 | O=S(=O)(NCCNC/C=C/c1ccc(Br)cc1)c1cccc2cnccc12 | 90.2% | 103% | 103% | 91.2% | 26.3% and 41.1% | 79.1% | 105% | 98.5% | 77.3% | 25.6% | 88.8% | 94.4% | 57.9% | 85.7% | 78.7% | 83.5% | 90.7% | 71.9% | 91.6% | 79.2% | residual activity (PTK2 (human)): 64.1%; residual activity [2]: 93.2%; residual activity (PAK6 (human)): 85.5%; residual activity (CHEK1 (human)): 90.8%; residual activity (EPHB2 (human)): 81.7%; residual activity (CAMK2B (human)): 93.3%; residual activity (RET (human)): 102%; residual activity (KIT (human)): 101%; residual activity (BRAF (human)): 99.8%; residual activity (CLK4 (human)): 119%; residual activity [3]: 87.3%; residual activity (TGFBR2 (human)): 92.1%; residual activity (CSNK2A1 (human)): 97.8%; residual activity (PDPK1 (human)): 94.1%
